PMC5857911, “Inositol pyrophosphate synthesis by diphosphoinositol pentakisphosphate kinase-1 is regulated by phosphatidylinositol(4,5)bisphosphate” (Bioscience Reports, 2018)
Positions count from the first letter of the chain named.

Experiments:
Format in all cases: biochemical
PPIP5K1 [1] = target: T1, PPIP5K1 (Homo sapiens, UniProt Q6PFW1); experiment: InsP8 phosphatase assay with [3H]InsP8, HPLC, dose-response
T1 construct: full-length human PPIP5K1
T1 sequence (Q6PFW1 1-1433): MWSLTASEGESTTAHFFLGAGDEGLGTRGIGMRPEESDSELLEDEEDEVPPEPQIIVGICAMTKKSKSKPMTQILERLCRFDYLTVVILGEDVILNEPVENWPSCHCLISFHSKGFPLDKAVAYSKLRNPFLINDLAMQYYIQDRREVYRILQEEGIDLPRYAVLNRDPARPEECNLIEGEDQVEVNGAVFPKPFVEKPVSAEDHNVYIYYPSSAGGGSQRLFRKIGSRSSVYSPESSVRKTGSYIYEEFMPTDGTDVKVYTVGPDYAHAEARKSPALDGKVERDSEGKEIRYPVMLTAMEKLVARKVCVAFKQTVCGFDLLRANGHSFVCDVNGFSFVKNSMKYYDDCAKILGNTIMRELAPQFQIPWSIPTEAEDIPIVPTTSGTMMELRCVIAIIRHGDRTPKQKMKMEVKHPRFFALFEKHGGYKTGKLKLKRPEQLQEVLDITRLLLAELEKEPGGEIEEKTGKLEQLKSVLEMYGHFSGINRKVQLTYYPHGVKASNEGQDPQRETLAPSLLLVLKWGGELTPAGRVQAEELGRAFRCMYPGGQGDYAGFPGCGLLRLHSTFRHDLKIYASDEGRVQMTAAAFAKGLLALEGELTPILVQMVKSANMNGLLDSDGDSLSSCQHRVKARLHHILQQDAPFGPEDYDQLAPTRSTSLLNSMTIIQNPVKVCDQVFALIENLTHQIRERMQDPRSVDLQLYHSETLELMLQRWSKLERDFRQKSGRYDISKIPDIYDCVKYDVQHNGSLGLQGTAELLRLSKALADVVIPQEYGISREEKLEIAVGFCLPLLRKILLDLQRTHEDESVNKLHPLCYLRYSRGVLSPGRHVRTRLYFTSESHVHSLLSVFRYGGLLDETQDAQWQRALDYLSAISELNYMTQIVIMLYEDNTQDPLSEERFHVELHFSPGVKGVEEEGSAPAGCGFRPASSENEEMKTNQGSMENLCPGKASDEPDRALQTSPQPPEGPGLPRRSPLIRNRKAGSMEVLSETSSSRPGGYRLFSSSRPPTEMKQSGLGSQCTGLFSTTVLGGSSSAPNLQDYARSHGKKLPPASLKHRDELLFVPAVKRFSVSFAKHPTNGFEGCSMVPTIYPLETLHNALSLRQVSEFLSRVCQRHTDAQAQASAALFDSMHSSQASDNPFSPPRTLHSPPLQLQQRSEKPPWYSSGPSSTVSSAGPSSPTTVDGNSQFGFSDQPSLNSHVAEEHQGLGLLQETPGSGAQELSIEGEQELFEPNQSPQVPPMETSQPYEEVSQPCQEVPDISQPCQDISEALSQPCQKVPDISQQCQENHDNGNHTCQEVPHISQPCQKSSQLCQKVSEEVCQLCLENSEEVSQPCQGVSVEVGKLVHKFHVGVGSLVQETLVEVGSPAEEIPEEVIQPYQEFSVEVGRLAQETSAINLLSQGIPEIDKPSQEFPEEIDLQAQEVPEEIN

PPIP5K1 [2] = target: T1, PPIP5K1; experiment: kinase assay of purified recombinant enzyme with […]-[3H]InsP7, HPLC, first-order conditions
PPIP5K1 [3] = target: T2, PPIP5K1 (Homo sapiens, UniProt Q6PFW1, R399A); experiment: kinase assay of purified phosphatase-compromised mutant, […] h, HPLC
T2 construct: full-length human PPIP5K1
T2 sequence (Q6PFW1 1-1433 R399A): T1 sequence (Q6PFW1 1-1433) with R399A

PPIP5K1 [4] = target: T1, PPIP5K1; experiment: phosphatase assay of purified recombinant enzyme, […] InsP8 with [3H]InsP8, HPLC

IC50 (PPIP5K1 [1]) [µM]	Structure (SMILES)	other results
~40	CCCCCCCC(=O)OC[C@H](COP(=O)(O)O[C@@H]1[C@H](O)[C@H](O)[C@@H](OP(=O)(O)O)[C@H](OP(=O)(O)O)[C@H]1O)OC(=O)CCCCCCC [C8-PtdIns(4,5)P2]	
	O=P(O)(O)O[C@H]1[C@@H](OP(=O)(O)O)[C@H](OP(=O)(O)O)[C@@H](OP(=O)(O)OP(=O)(O)O)[C@H](OP(=O)(O)O)[C@H]1OP(=O)(O)O [5-InsP7]	kinase assay of purified recombinant enzyme with 5-[3H]InsP7, HPLC, first-order (PPIP5K1 [2]): 0.07 min⁻¹; % / ng protein (PPIP5K1 [3]): 6.9 ± 0.01 % / ng protein
~35	CCCCCCCC(=O)OC[C@H](COP(=O)(O)O[C@H]1[C@H](O)[C@@H](OP(=O)(O)O)[C@H](OP(=O)(O)O)[C@@H](OP(=O)(O)O)[C@H]1O)OC(=O)CCCCCCC [C8-PtdIns(3,4,5)P3]	
	O=P(O)(O)O[C@@H]1[C@@H](OP(=O)(O)O)[C@H](OP(=O)(O)OP(=O)(O)O)[C@@H](OP(=O)(O)O)[C@H](OP(=O)(O)OP(=O)(O)O)[C@@H]1OP(=O)(O)O [InsP8]	phosphatase assay of purified recombinant enzyme, 1 μM InsP8 with [3H]InsP8, HPL (PPIP5K1 [4]): 7 ± 1 nmol/mg protein/min
~25	CCCCCCCC(=O)OC[C@H](COP(=O)(O)O[C@H]1[C@H](O)[C@@H](O)[C@H](OP(=O)(O)O)[C@@H](OP(=O)(O)O)[C@H]1O)OC(=O)CCCCCCC [C8-PtdIns(3,4)P2]	
